Experimental data from patent publication USRE42890E1, “Furazanobenzimidazoles” (Basilea Pharmaceutica AG, priority 2003, dated 2011).
Read-outs that look alike come from different tables or passages of the source.

How the values were obtained:
Jurkat = assay: MTS proliferation assay, Jurkat; format: cell-based, human; details: 72 h incubation, read-out: MTS proliferation assay IC 50 Jurkat
Summary of the method: (§1)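 A 72 h exposure to compound (final 0.3–10 μM, four levels) was followed by 3 h MTS incubation and an A492 read.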

Jily = assay: MTS proliferation assay, Jily; format: cell-based; details: 72 h incubation, read-out: MTS proliferation assay IC 50 Jily
Protocol: Cell lines are cultured in RPMI-1640 tissue culture medium containing either 5% or 10% fetal calf serum, 0.05 mM 2-mercaptoethanol, 2 mM glutamine and penicillin/streptomycin 50 μg/ml (complete medium) (Sigma, Buchs, Switzerland). General growth conditions are 37° C. and 7.5% CO2.
The assay is performed in 96 well tissue culture plates. The cells (range: 1.5*10^3-10^4) are seeded out in 80 μl complete medium 24 h prior to compound treatment. The test compounds are added in 20 μl complete medium containing max 5% DMSO. The final compound concentrations in the assays are 10 μM, 3 μM, 1 μM and 0.3 μM, respectively. The assay plates are incubated for 72 h at culture conditions. The MTS reagent is prepared according to the manufacturer's protocol (Promega G1111). 20 μl MTS reagent are added to each well, the assay plates are quickly spun and incubated for another 3 h at culture conditions. Subsequently, the plates are shortly shaked and absorption measured with a microplate-reader at 492 nm.

HT1080 = assay: MTS proliferation assay, HT1080; format: cell-based, human; details: HT1080, 72 h incubation, read-out: MTS proliferation assay IC 50 HT1080
Summary of the method: as §1

HeLa = assay: MTS proliferation assay, HeLa; format: cell-based, human; details: 72 h incubation, read-out: MTS proliferation assay IC 50 HeLa
Summary of the method: as §1

MRC5 = assay: MTS proliferation assay, MRC5; format: cell-based; details: MRC5, 72 h incubation, read-out: MTS proliferation assay IC 50 MRC5
Summary of the method: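 Proliferation is followed by MTS conversion, measured as absorbance at 492 nm. Cells are exposed for 72 h to four fixed compound concentrations (10 μM down to 0.3 μM) under 37° C, 7.5% CO2 culture conditions.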

[1] = test system: adherent cells or suspension cells; assay: Hoechst 33342 nuclear staining (fraction of apoptotic nuclei); format: cell-based; set-up: key: 0 relating to no activity; 1 relating to weak activity comprising less than 70% of the cells; score 2 relating to strong activity comprising more than 70% of the cells

SMILES | IC50 (Jily) [nM] | Hoechst 33342 nuclear staining score ([1]; H460, conc 0.01 μm) | Hoechst 33342 nuclear staining score ([1]; H460, conc 0.1 μm) | Hoechst 33342 nuclear staining score ([1]; H460, conc 1 μm) | Hoechst 33342 nuclear staining score ([1]; HeLa, conc 0.01 μm) | Hoechst 33342 nuclear staining score ([1]; HeLa, conc 0.1 μm) | Hoechst 33342 nuclear staining score ([1]; HeLa, conc 1 μm) | Hoechst 33342 nuclear staining score ([1]; Jily, conc 0.01 μm) | Hoechst 33342 nuclear staining score ([1]; Jily, conc 0.1 μm) | Hoechst 33342 nuclear staining score ([1]; Jily, conc 1 μm) | Hoechst 33342 nuclear staining score ([1]; Jurkat, conc 0.01 μm) | Hoechst 33342 nuclear staining score ([1]; Jurkat, conc 0.1 μm) | Hoechst 33342 nuclear staining score ([1]; Jurkat, conc 1 μm) | Hoechst 33342 nuclear staining score ([1]; MRC5, conc 0.01 μm) | Hoechst 33342 nuclear staining score ([1]; MRC5, conc 0.1 μm) | Hoechst 33342 nuclear staining score ([1]; MRC5, conc 1 μm) | Hoechst 33342 nuclear staining score ([1]; PBLs, conc 0.01 μm) | Hoechst 33342 nuclear staining score ([1]; PBLs, conc 0.1 μm) | Hoechst 33342 nuclear staining score ([1]; PBLs, conc 1 μm) | IC50 (HT1080) [nM] | further results
Nc1cc(C(=O)Cn2c(-c3nonc3N)nc3ccccc32)ccc1Cl [Example 14, 4-[1-(3-Amino-4-chlorophenacyl)-1H-benzimidazol-2-yl]-furazan-3-ylamine] | 10 to 100 | 0 | 2 (score 2 relating to strong activity comprising more than 70% of the cells) | 2 (score 2 relating to strong activity comprising more than 70% of the cells) | 0 | 1 (1 relating to weak activity comprising less than 70% of the cells) | 2 (score 2 relating to strong activity comprising more than 70% of the cells) | 0 | 2 (score 2 relating to strong activity comprising more than 70% of the cells) | 2 (score 2 relating to strong activity comprising more than 70% of the cells) | 0 | 2 (score 2 relating to strong activity comprising more than 70% of the cells) | 2 (score 2 relating to strong activity comprising more than 70% of the cells) | 0 | 1 (1 relating to weak activity comprising less than 70% of the cells) | 2 (score 2 relating to strong activity comprising more than 70% of the cells) | 0 | 0 | 0 |  | IC50 (Jurkat; Homo sapiens): 10 to 100 nM; IC50 (HT1080; Homo sapiens, HT-1080): 10 to 100 nM; IC50 (HeLa; Homo sapiens): 10 to 100 nM; IC50 (MRC5; Homo sapiens): 10 to 100 nM
Nc1nonc1-c1nc2ccccc2n1CC(=O)c1cccc2ccccc12 [Example 41] | 100 to 1000 |  |  |  | 0 | 0 | 2 (score 2 relating to strong activity comprising more than 70% of the cells) | 0 | 0 | 2 (score 2 relating to strong activity comprising more than 70% of the cells) | 0 | 0 | 2 (score 2 relating to strong activity comprising more than 70% of the cells) | 0 | 0 | 0 | 0 | 0 | 1 (1 relating to weak activity comprising less than 70% of the cells) | 100 to 1000 | IC50 (Jurkat): 100 to 1000 nM; IC50 (HeLa): 100 to 1000 nM; IC50 (MRC5): 100 to 1000 nM
Nc1nonc1-c1nc2ccccc2n1COc1cc(C(F)(F)F)cc(C(F)(F)F)c1 [Example 102] | 100 to 1000 | 0 | 0 | 1 (1 relating to weak activity comprising less than 70% of the cells) | 0 | 0 | 0 | 0 | 0 | 1 (1 relating to weak activity comprising less than 70% of the cells) | 0 | 0 | 2 (score 2 relating to strong activity comprising more than 70% of the cells) | 0 | 0 | 0 | 0 | 0 | 0 | > 1000 | IC50 (HeLa): > 1000 nM; IC50 (MRC5): 100 to 1000 nM
